# According to patent publication US8785429B2, “Dihydropyrrolonaphthyridinone compounds as inhibitors of JAK” (Takeda Pharmaceutical Company Limited, priority 2009, dated 2014):
# What was measured:
# JAK3 = target: T1, JAK3 (Homo sapiens, UniProt P52333); experiment: Assay for JAK3 Inhibition (phosphorylation of FAM-labeled substrate, Caliper LC-3000); type: biochemical; conditions: −log10(IC50), IC50 is the molar concentration at 50% inhibition; read-out: JAK3 pIC50 (converted)
# T1 construct: purchased Invitrogen
# T1 sequence (P52333 1-1124): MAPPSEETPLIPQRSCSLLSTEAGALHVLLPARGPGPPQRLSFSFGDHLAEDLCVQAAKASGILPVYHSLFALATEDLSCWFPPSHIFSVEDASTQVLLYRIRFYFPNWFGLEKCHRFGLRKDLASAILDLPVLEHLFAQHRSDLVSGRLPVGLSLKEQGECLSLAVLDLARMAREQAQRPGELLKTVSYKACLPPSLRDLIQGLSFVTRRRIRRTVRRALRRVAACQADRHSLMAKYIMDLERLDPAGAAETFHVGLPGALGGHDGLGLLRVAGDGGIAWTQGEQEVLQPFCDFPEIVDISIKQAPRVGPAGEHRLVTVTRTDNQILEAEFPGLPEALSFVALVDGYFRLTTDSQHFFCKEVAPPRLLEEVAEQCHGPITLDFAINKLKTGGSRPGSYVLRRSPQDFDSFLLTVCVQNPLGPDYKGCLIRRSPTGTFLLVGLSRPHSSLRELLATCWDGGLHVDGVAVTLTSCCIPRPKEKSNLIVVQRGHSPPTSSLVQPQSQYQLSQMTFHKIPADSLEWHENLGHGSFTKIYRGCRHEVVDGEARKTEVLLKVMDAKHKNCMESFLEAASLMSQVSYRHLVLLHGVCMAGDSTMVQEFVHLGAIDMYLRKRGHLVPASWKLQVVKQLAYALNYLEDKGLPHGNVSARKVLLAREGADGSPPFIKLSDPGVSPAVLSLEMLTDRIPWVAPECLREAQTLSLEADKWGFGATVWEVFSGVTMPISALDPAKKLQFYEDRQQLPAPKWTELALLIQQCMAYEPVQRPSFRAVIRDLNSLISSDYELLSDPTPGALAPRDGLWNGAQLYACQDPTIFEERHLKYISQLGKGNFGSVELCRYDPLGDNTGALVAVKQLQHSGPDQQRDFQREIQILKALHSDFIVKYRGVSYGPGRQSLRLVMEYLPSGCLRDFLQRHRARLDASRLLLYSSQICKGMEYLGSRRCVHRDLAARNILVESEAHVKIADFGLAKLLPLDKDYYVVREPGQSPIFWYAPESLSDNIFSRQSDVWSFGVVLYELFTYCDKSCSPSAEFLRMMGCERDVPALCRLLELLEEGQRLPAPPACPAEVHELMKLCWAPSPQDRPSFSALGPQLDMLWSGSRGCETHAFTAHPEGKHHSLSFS
# Procedure: (§1) A compound's ability to inhibit JAK activity may be assessed using a variety of methods, including in vitro and in vivo assays. The following in vitro assays measure a test compound's ability to inhibit JAK2- and JAK3-mediated phosphorylation of FAM-labeled JAK-specific substrates.
# (§2) Purified JAK2 and JAK3 proteins were purchased from Invitrogen. JAK2 and JAK3 inhibition is determined using a black 384-well-plate format in buffer containing 50 mM HEPES, 10 mM NaCl, 10 mM MgCl2, 0.2 mM EDTA, 0.01% EDA (Brij® 35), 1 mM DTT, 0.1 mg/mL BSA at pH 7.3. Each test compound is prepared in DMSO using 2-fold serial dilutions for 11 data points and is added to the buffer so that each dilution contains 3% DMSO.
# (§3) To each well is added 2 μL of 3 μM 5FAM-KKKKEEIYFFFG-NH2 and 15 μM ATP (in buffer), 2 μL of diluted test compound (3% DMSO in medium), and 2 μL of 1.2 nM JAK3 in buffer. The reaction mixture is incubated at room temperature for 60 min and is quenched by adding 50 mM HEPES, 30 mM EDTA, and 0.1% Tx-100 (pH 7.3). To quantify the fluorescent-labeled substrate and product following reaction, the test plate is loaded on a Caliper LC-3000, which measures percent of conversion by microfluidic-based separation.
# (§4) Corresponding IC50 values are calculated by non-linear curve fitting of the compound concentrations and percent of inhibition to the standard IC50 equation.
# JAK2 = target: T2, JAK2 (Homo sapiens, UniProt O60674); experiment: Assay for JAK2 Inhibition (phosphorylation of FAM-labeled substrate, Caliper LC-3000); type: biochemical; conditions: −log10(IC50), IC50 is the molar concentration at 50% inhibition; read-out: JAK2 pIC50 (converted)
# T2 construct: purchased Invitrogen
# Procedure: as §1, §2
# as §3, with “45” for “15”, “0.6” for “1.2”, “JAK2” for “JAK3”, “HEPeX,” for “HEPES,”
# as §4
# T2 sequence (O60674 whole entry): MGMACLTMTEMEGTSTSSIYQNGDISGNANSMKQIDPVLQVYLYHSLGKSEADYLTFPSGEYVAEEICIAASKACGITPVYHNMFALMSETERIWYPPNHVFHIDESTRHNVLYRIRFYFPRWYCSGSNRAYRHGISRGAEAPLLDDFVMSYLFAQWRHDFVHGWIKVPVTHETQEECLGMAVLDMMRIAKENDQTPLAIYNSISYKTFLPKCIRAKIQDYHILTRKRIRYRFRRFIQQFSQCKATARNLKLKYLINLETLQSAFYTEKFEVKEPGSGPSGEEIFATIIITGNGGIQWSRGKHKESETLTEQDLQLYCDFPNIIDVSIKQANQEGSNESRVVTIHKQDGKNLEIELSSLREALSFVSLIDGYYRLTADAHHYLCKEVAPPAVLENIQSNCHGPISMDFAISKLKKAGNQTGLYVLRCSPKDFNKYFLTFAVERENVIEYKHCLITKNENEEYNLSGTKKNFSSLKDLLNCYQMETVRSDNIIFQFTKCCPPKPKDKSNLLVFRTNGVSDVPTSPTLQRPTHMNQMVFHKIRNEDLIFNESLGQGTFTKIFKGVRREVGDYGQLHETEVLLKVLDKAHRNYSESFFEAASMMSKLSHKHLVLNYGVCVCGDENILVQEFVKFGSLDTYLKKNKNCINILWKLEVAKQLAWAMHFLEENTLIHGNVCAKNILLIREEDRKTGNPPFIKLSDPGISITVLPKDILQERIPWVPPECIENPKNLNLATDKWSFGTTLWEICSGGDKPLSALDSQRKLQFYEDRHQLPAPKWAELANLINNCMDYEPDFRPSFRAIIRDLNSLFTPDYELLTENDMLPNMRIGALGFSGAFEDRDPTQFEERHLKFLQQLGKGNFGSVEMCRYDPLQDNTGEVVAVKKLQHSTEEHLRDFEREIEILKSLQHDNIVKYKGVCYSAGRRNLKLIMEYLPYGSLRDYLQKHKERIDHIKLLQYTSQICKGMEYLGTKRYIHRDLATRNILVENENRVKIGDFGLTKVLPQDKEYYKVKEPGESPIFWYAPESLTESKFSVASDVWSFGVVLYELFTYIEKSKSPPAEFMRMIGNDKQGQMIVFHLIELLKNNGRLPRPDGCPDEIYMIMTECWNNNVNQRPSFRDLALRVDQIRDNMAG
SMILES,IC50 (JAK3),IC50 (JAK2)
"CC(C)[C@H](C(=O)N1CC(C)(C#N)C1)N1Cc2ccnc3[nH]cc(c23)C1=O [Example 53, (R)-3-methyl-1-(3-methyl-2-(3-oxopyrrolo[4,3,2-de][2,6]naphthyridin-4(1H,3H,5H)-yl)butanoyl)azetidine-3-carbonitrile]",12.6 nM,0.251 µM
"CC[C@H](C(=O)N1CCOCC1)N1Cc2ccnc3[nH]cc(c23)C1=O [Example 54, (R)-4-(1-morpholino-1-oxobutan-2-yl)-4,5-dihydropyrrolo[4,3,2-de][2,6]naphthyridin-3(1 H)-one]",2000 nM,31.6 µM
"CC[C@H](C(=O)N1CCN(C)CC1)N1Cc2ccnc3[nH]cc(c23)C1=O [Example 55, (R)-4-(1-(4-methylpiperazin-1-yl)-1-oxobutan-2-yl)-4,5-dihydropyrrolo[4,3,2-de][2,6]naphthyridin-3(1 H)-one]",1000 nM,12.6 µM
"CC[C@H](C(=O)N1CCC(O)C1)N1Cc2ccnc3[nH]cc(c23)C1=O (stereo partly drawn) [Example 56, 4-((2R)-1-(3-hydroxypyrrolidin-1-yl)-1-oxobutan-2-yl)-4,5-dihydropyrrolo[4,3,2-de][2,6]naphthyridin-3(1 H)-one]",631 nM,10 µM
"CC[C@H](C(=O)NC1CCCC1)N1Cc2ccnc3[nH]cc(c23)C1=O [Example 57, (R)—N-cyclopentyl-2-(3-oxopyrrolo[4,3,2-de][2,6]naphthyridin-4(1H,3H,5H)-yl)butanamide]",79.4 nM,1.58 µM
"CC[C@H](C(=O)N1CCC(c2ccc(F)cc2)C1)N1Cc2ccnc3[nH]cc(c23)C1=O (stereo partly drawn) [Example 58, 4-((2R)-1-(3-(4-fluorophenyl)pyrrolidin-1-yl)-1-oxobutan-2-yl)-4,5-dihydropyrrolo[4,3,2-de][2,6]naphthyridin-3(1 H)-one]",316 nM,3.16 µM
"CC[C@H](C(=O)N1CCC(N(C)C)C1)N1Cc2ccnc3[nH]cc(c23)C1=O (stereo partly drawn) [Example 59, 4-((2R)-1-(3-(dimethylamino)pyrrolidin-1-yl)-1-oxobutan-2-yl)-4,5-dihydropyrrolo[4,3,2-de][2,6]naphthyridin-3(1 H)-one]",6310 nM,20 µM
"CC[C@H](C(=O)N1CCC(COC)C1)N1Cc2ccnc3[nH]cc(c23)C1=O (stereo partly drawn) [Example 60, 4-((2R)-1-(3-(methoxymethyl)pyrrolidin-1-yl)-1-oxobutan-2-yl)-4,5-dihydropyrrolo[4,3,2-de][2,6]naphthyridin-3(1 H)-one]",794 nM,10 µM
"CC[C@H](C(=O)N1CCCC(C)C1)N1Cc2ccnc3[nH]cc(c23)C1=O (stereo partly drawn) [Example 61, 4-((2R)-1-(3-methylpiperidin-1-yl)-1-oxobutan-2-yl)-4,5-dihydropyrrolo[4,3,2-de][2,6]naphthyridin-3(1 H)-one]",6310 nM,20 µM
"CC[C@H](C(=O)N1CCC(C(C)(C)O)CC1)N1Cc2ccnc3[nH]cc(c23)C1=O [Example 62, (R)-4-(1-(4-(2-hydroxypropan-2-yl)piperidin-1-yl)-1-oxobutan-2-yl)-4,5-dihydropyrrolo[4,3,2-de][2,6]naphthyridin-3(1 H)-one]",1580 nM,12.6 µM
"CC[C@H](C(=O)N1CCN(S(C)(=O)=O)CC1)N1Cc2ccnc3[nH]cc(c23)C1=O [Example 63, (R)-4-(1-(4-(methylsulfonyl)piperazin-1-yl)-1-oxobutan-2-yl)-4,5-dihydropyrrolo[4,3,2-de][2,6]naphthyridin-3(1 H)-one]",631 nM,6.31 µM
"CC[C@H](C(=O)N1CCN(c2ccccn2)CC1)N1Cc2ccnc3[nH]cc(c23)C1=O [Example 64, (R)-4-(1-oxo-1-(4-(pyridin-2-yl)piperazin-1-yl)butan-2-yl)-4,5-dihydropyrrolo[4,3,2-de][2,6]naphthyridin-3(1 H)-one]",2510 nM,20 µM
"CC[C@H](C(=O)NC1CC1)N1Cc2ccnc3[nH]cc(c23)C1=O [Example 65, (R)—N-cyclopropyl-2-(3-oxopyrrolo[4,3,2-de][2,6]naphthyridin-4(1H,3H,5H)-yl)butanamide]",2000 nM,6.31 µM
"CC[C@H](C(=O)NCC1CC1)N1Cc2ccnc3[nH]cc(c23)C1=O [Example 66, (R)—N-(cyclopropylmethyl)-2-(3-oxopyrrolo[4,3,2-de][2,6]naphthyridin-4(1H,3H,5H)-yl)butanamide]",3980 nM,20 µM
"CC[C@H](C(=O)NCC(C)C)N1Cc2ccnc3[nH]cc(c23)C1=O [Example 67, (R)—N-isobutyl-2-(3-oxopyrrolo[4,3,2-de][2,6]naphthyridin-4(1H,3H,5H)-yl)butanamide]",251 nM,5.01 µM
"CC[C@H](C(=O)N(C)CC(C)C)N1Cc2ccnc3[nH]cc(c23)C1=O [Example 68, (R)—N-isobutyl-N-methyl-2-(3-oxopyrrolo[4,3,2-de][2,6]naphthyridin-4(1H,3H,5H)-yl)butanamide]",2510 nM,20 µM
"CC[C@H](C(=O)NC(C)CO)N1Cc2ccnc3[nH]cc(c23)C1=O (stereo partly drawn) [Example 69, (2R)—N-(1-hydroxypropan-2-yl)-2-(3-oxopyrrolo[4,3,2-de][2,6]naphthyridin-4(1H,3H,5H)-yl)butanamide]",631 nM,10 µM
"CC[C@H](C(=O)NCC(C)(C)O)N1Cc2ccnc3[nH]cc(c23)C1=O [Example 70, (R)—N-(2-hydroxy-2-methylpropyl)-2-(3-oxopyrrolo[4,3,2-de][2,6]naphthyridin-4(1H,3H,5H)-yl)butanamide]",501 nM,10 µM
"CC[C@H](C(=O)NC[C@H](O)CO)N1Cc2ccnc3[nH]cc(c23)C1=O [Example 71, (R)—N—((S)-2,3-dihydroxypropyl)-2-(3-oxopyrrolo[4,3,2-de][2,6]naphthyridin-4(1H,3H,5H)-yl)butanamide]",794 nM,5.01 µM
"CC[C@H](C(=O)Nc1ccccc1)N1Cc2ccnc3[nH]cc(c23)C1=O [Example 72, (R)-2-(3-oxopyrrolo[4,3,2-de][2,6]naphthyridin-4(1H,3H,5H)-yl)-N-phenylbutanamide]",126 nM,2 µM
"CC[C@H](C(=O)NC1CCN(S(C)(=O)=O)CC1)N1Cc2ccnc3[nH]cc(c23)C1=O [Example 73, (R)—N-(1-(methylsulfonyl)piperidin-4-yl)-2-(3-oxopyrrolo[4,3,2-de][2,6]naphthyridin-4(1H,3H,5H)-yl)butanamide]",158 nM,3.16 µM
"CC[C@H](C(=O)NCC1CCCO1)N1Cc2ccnc3[nH]cc(c23)C1=O (stereo partly drawn) [Example 74, (2R)-2-(3-oxopyrrolo[4,3,2-de][2,6]naphthyridin-4(1H,3H,5H)-yl)-N-((tetrahydrofuran-2-yl)methyl)butanamide]",794 nM,7.94 µM
